From patent publication US20180327355A1, “ISOINDOLINE DERIVATIVES” (priority 2015, published 2018)

test system: HIV; assay: MT4 assay (anti-HIV activity); type: cell-based; settings: 96 h
Procedure: Antiviral HIV activity and cytotoxicity values for compounds of the invention from Table 1 were measured in parallel in the HTLV-1 transformed cell line MT-4 based on the method previously described (Hazen et al., 2007, In vitro antiviral activity of the novel, tyrosyl-based human immunodeficiency virus (HIV) type 1 protease inhibitor brecanavir (GW640385) in combination with other antiretrovirals and against a panel of protease inhibitor-resistant HIV (Hazen et al., “In vitro antiviral activity of the novel, tyrosyl-based human immunodeficiency virus (HIV) type 1 protease inhibitor brecanavir (GW640385) in combination with other antiretrovirals and against a panel of protease inhibitor-resistant HIV”, Antimicrob. Agents Chemother. 2007, 51: 3147-3154; and Pauwels et al., “Sensitive and rapid assay on MT-4 cells for the detection of antiviral compounds against the AIDS virus”, J. of Virological Methods 1987, 16: 171-185).
Luciferase activity was measured 96 hours later by adding a cell titer glo (Promega, Madison, Wis.). Percent inhibition of cell protection data was plotted relative to no compound control. Under the same condition, cytotoxicity of the compounds was determined using cell titer Glo™ (Promega, Madison, Wis). ICsos were determined from a 10 point dose response curve using 3-4-fold serial dilution for each compound, which spans a concentration range >1000 fold.
These values are plotted against the molar compound concentrations using the standard four parameter logistic equation:
y=((Vmax*x̂n)/(K̂n+x̂n))+Y2
Y2=minimum y n=slope factor
Vmax=maximum y x=compound concentration [M]

Question: How did the IC50 turn out when `C/C(=C(/C)c1c(C)c2c(c(C)c1[C@H](OC(C)(C)C)C(=O)O)CN(C(=O)c1cccc(F)c1)C2)c1ccccc1` [Example 23, (S,E)-2-(tert-butoxy)-2-(2-(3-fluorobenzoyl)-4,7-dimethyl-6-(3-phenylbut-2-en-2-yl)isoindolin-5-yl)acetic acid] was run?
Answer: 0.044 µM

same assay, conditions: MT4 assay, HTLV-1 transformed cell line MT-4, readout 96 hours, cell titer glo; read-out: IC50

Question: For `Cc1c(/C=C/CC(C)(C)C)c([C@H](OC(C)(C)C)C(=O)O)c(C)c2c1CN(C(=O)c1cccc(F)c1)C2` [Example 16, (S,E)-2-(tert-butoxy)-2-(6-(4,4-dimethylpent-1-en-1-yl)-2-(3-fluorobenzoyl)-4,7-dimethylisoindolin-5-yl)acetic acid], which IC50 is on record?
Answer: 0.12 µM

Question: How did the IC50 turn out when `Cc1c2c(c(C)c(N(C)C(=O)CC3CCCCC3)c1[C@H](OC(C)(C)C)C(=O)O)CN(C(=O)c1cccc(F)c1)C2` [Example 13, (S)-2-(tert-butoxy)-2-(6-(2-cyclohexyl-N-methylacetamido)-2-(3-fluorobenzoyl)-4,7-dimethylisoindolin-5-yl)acetic acid] was run?
Answer: 44.6 µM

Question: With `Cc1ccc(CCc2c(C)c3c(c(C)c2[C@H](OC(C)(C)C)C(=O)O)CN(C(=O)c2cccc(F)c2)C3)cc1` [Example 20, (S)-2-(tert-butoxy)-2-(2-(3-fluorobenzoyl)-4,7-dimethyl-6-(4-methylphenethyl)isoindolin-5-yl)acetic acid] as the molecule, how does the IC50 read?
Answer: 50 µM

Question: `Cc1c(C#Cc2ccccc2)c([C@H](OC(C)(C)C)C(=O)O)c(C)c2c1CN(C(=O)c1cccc(F)c1)C2` [Example 1, (S)-2-(tert-butoxy)-2-(2-(3-fluorobenzoyl)-4,7-dimethyl-6-(phenylethynyl)isoindolin-5-yl)acetic acid] was tested. Which IC50 did it give?
Answer: 1.03 µM

Question: Which IC50 does the source give for `Cc1ccc(C(=O)Nc2c(C)c3c(c(C)c2[C@H](OC(C)(C)C)C(=O)O)CN(C(=O)c2cccc(F)c2)C3)cc1` [Example 8, (S)-2-(tert-butoxy)-2-(2-(3-fluorobenzoyl)-4,7-dimethyl-6-(4-methylbenzamido)isoindolin-5-yl)acetic acid] here?
Answer: 50 µM

Question: How did the IC50 turn out when `Cc1c2c(c(C)c([C@H](OC(C)(C)C)C(=O)O)c1CC(=O)N1CCCCC1)CN(C(=O)c1cccc(F)c1)C2` [Example 4, (S)-2-(tert-butoxy)-2-(2-(3-fluorobenzoyl)-4,7-dimethyl-6-(2-oxo-2-(piperidin-1-yl)ethyl)isoindolin-5-yl)acetic acid] was run?
Answer: 10.2 µM

Question: For `Cc1c2c(c(C)c([C@H](OC(C)(C)C)C(=O)O)c1Cc1ccccc1)CN(C(=O)c1cccc(F)c1)C2` [Example 3, (S)-2-(6-benzyl-2-(3-fluorobenzoyl)-4,7-dimethylisoindolin-5-yl)-2-(tert-butoxy)acetic acid], which IC50 is on record?
Answer: 0.651 µM

Question: `Cc1c(/C=C/c2ccccc2)c([C@H](OC(C)(C)C)C(=O)O)c(C)c2c1CN(C(=O)c1cccc(F)c1)C2` [Example 17, (S,E)-2-(tert-butoxy)-2-(2-(3-fluorobenzoyl)-4,7-dimethyl-6-styrylisoindolin-5-yl)acetic acid] was tested. Which IC50 did it give?
Answer: 0.124 µM

Question: `Cc1c(/C=C/C2CCCCC2)c([C@H](OC(C)(C)C)C(=O)O)c(C)c2c1CN(C(=O)c1cccc(F)c1)C2` [Example 14, (S,E)-2-(tert-butoxy)-2-(6-(2-cyclohexylvinyl)-2-(3-fluorobenzoyl)-4,7-dimethylisoindolin-5-yl)acetic acid] was tested. Which IC50 did it give?
Answer: 0.086 µM

Question: For `C/C(=C\c1cc(F)c2c(c1C)CCCO2)c1c(C)c2c(c(C)c1[C@H](OC(C)(C)C)C(=O)O)CN(C(=O)c1cccc(F)c1)C2` [Example 24, (S,E)-2-(tert-butoxy)-2-(6-(1-(8-fluoro-5-methylchroman-6-yl)prop-1-en-2-yl)-2-(3-fluorobenzoyl)-4,7-dimethylisoindolin-5-yl)acetic acid], which IC50 is on record?
Answer: 50 µM

Question: For `Cc1c2c(c(C)c([C@H](OC(C)(C)C)C(=O)O)c1CC(=O)NC1CCCCC1)CN(C(=O)c1cccc(F)c1)C2` [Example 5, (S)-2-(tert-butoxy)-2-(6-(2-(cyclohexylamino)-2-oxoethyl)-2-(3-fluorobenzoyl)-4,7-dimethylisoindolin-5-yl)acetic acid], which IC50 is on record?
Answer: 50 µM

Question: With `Cc1ccc(/C=C/c2c(C)c3c(c(C)c2[C@H](OC(C)(C)C)C(=O)O)CN(C(=O)c2cccc(F)c2)C3)cc1` [Example 19, (S,E)-2-(tert-butoxy)-2-(2-(3-fluorobenzoyl)-4,7-dimethyl-6-(4-methylstyryl)isoindolin-5-yl)acetic acid] as the molecule, how does the IC50 read?
Answer: 50 µM

Question: With `Cc1c2c(c(C)c([C@H](OC(C)(C)C)C(=O)O)c1CC(=O)Nc1ccccc1)CN(C(=O)c1cccc(F)c1)C2` [Example 6, (S)-2-(tert-butoxy)-2-(2-(3-fluorobenzoyl)-4,7-dimethyl-6-(2-oxo-2-(phenylamino)ethyl)isoindolin-5-yl)acetic acid] as the molecule, how does the IC50 read?
Answer: 9.63 µM

Question: Which IC50 does the source give for `Cc1c2c(c(C)c([C@H](OC(C)(C)C)C(=O)O)c1CC(=O)NCC(C)(C)C)CN(C(=O)c1cccc(F)c1)C2` [Example 7, (S)-2-(tert-butoxy)-2-(2-(3-fluorobenzoyl)-4,7-dimethyl-6-(2-(neopentylamino)-2-oxoethyl)isoindolin-5-yl)acetic acid] here?
Answer: 38 µM

Question: `Cc1c(/C=C/c2cc(F)c3c(c2C)CCCO3)c([C@H](OC(C)(C)C)C(=O)O)c(C)c2c1CN(C(=O)c1cccc(F)c1)C2` [Example 26] was tested. Which IC50 did it give?
Answer: 50 µM

Question: With `C#Cc1c(C)c2c(c(C)c1[C@H](OC(C)(C)C)C(=O)O)CN(C(=O)c1cccc(F)c1)C2` [Example 2, (S)-2-(tert-butoxy)-2-(6-ethynyl-2-(3-fluorobenzoyl)-4,7-dimethylisoindolin-5-yl)acetic acid] as the molecule, how does the IC50 read?
Answer: 3.68 µM

Question: How did the IC50 turn out when `Cc1c(/C=C\c2ccccc2)c([C@H](OC(C)(C)C)C(=O)O)c(C)c2c1CN(C(=O)c1cccc(F)c1)C2` [Example 27, (S,Z)-2-(tert-butoxy)-2-(2-(3-fluorobenzoyl)-4,7-dimethyl-6-styrylisoindolin-5-yl)acetic acid] was run?
Answer: 0.868 µM

Question: `Cc1ccc(C(=O)N(C)c2c(C)c3c(c(C)c2[C@H](OC(C)(C)C)C(=O)O)CN(C(=O)c2cccc(F)c2)C3)cc1` [Example 12, (S)-2-(tert-butoxy)-2-(6-(N,4-dimethylbenzamido)-2-(3-fluorobenzoyl)-4,7-dimethylisoindolin-5-yl)acetic acid] was tested. Which IC50 did it give?
Answer: 33.9 µM

Question: With `Cc1c(/C=C/c2ccc3c(c2)CCCO3)c([C@H](OC(C)(C)C)C(=O)O)c(C)c2c1CN(C(=O)c1cccc(F)c1)C2` [Example 25, (S,E)-2-(tert-butoxy)-2-(6-(2-(chroman-6-yl)vinyl)-2-(3-fluorobenzoyl)-4,7-dimethylisoindolin-5-yl)acetic acid] as the molecule, how does the IC50 read?
Answer: 33.9 µM

Question: How did the IC50 turn out when `C/C(=C\c1ccccc1)c1c(C)c2c(c(C)c1[C@H](OC(C)(C)C)C(=O)O)CN(C(=O)c1cccc(F)c1)C2` [Example 22, (S,E)-2-(tert-butoxy)-2-(2-(3-fluorobenzoyl)-4,7-dimethyl-6-(1-phenylprop-1-en-2-yl)isoindolin-5-yl)acetic acid] was run?
Answer: 0.039 µM

Question: With `Cc1c(/C=C/C2CCOCC2)c([C@H](OC(C)(C)C)C(=O)O)c(C)c2c1CN(C(=O)c1cccc(F)c1)C2` [Example 15, (S,E)-2-(tert-butoxy)-2-(2-(3-fluorobenzoyl)-4,7-dimethyl-6-(2-(tetrahydro-2H-pran-4-yl)vinyl)isoindolin-5-yl)acetic acid] as the molecule, how does the IC50 read?
Answer: 1.31 µM

Question: How did the IC50 turn out when `Cc1c2c(c(C)c([C@H](OC(C)(C)C)C(=O)O)c1CCc1ccccc1)CN(C(=O)c1cccc(F)c1)C2` [Example 18, (S)-2-(tert-butoxy)-2-(2-(3-fluorobenzoyl)-4,7-dimethyl-6-phenethylisoindolin-5-yl)acetic acid] was run?
Answer: 1.09 µM

Question: Which IC50 does the source give for `Cc1c2c(c(C)c([C@H](OC(C)(C)C)C(=O)O)c1NC(=O)CC1CCCCC1)CN(C(=O)c1cccc(F)c1)C2` [Example 9, (S)-2-(tert-butoxy)-2-(6-(2-cyclohexylacetamido)-2-(3-fluorobenzoyl)-4,7-dimethylisoindolin-5-yl)acetic acid] here?
Answer: 50 µM

Question: For `C/C(=C\c1c(C)c2c(c(C)c1[C@H](OC(C)(C)C)C(=O)O)CN(C(=O)c1cccc(F)c1)C2)c1ccccc1` [Example 21, (S,E)-2-(tert-butoxy)-2-(2-(3-fluorobenzoyl)-4,7-dimethyl-6-(2-phenylprop-1-en-1-yl)isoindolin-5-yl)acetic acid], which IC50 is on record?
Answer: 0.103 µM

Question: With `Cc1c2c(c(C)c([C@H](OC(C)(C)C)C(=O)O)c1NC(=O)c1ccccc1)CN(C(=O)c1cccc(F)c1)C2` [Example 10, (S)-2-(6-benzamido-2-(3-fluorobenzoyl)-4,7-dimethylisoindolin-5-yl)-2-(tert-butoxy)acetic acid] as the molecule, how does the IC50 read?
Answer: 4.1 µM

Question: Which IC50 does the source give for `Cc1c2c(c(C)c([C@H](OC(C)(C)C)C(=O)O)c1NC(=O)N1CCCCC1)CN(C(=O)c1cccc(F)c1)C2` [Example 11, (S)-2-(tert-butoxy)-2-(2-(3-fluorobenzoyl)-4,7-dimethyl-6-(piperidine-1-carboxamido)isoindolin-5-yl)acetic acid] here?
Answer: 3.12 µM
